Measured values from patent publication US10287269B2, “Pyrazolyl pyrimidinone compounds as PDE2 inhibitors” (Merck Sharp & Dohme Corp., priority 2015, dated 2019).
Read-outs that look alike come from different tables or passages of the source. Each block holds one compound with its values, some of them ahead of it.

Biological target: T1, Rhesus PDE2A3 (Macaca mulatta, UniProt B3VTJ2)
T1 construct: made in house; host or cells: AD293 cells, transient transfection, pcDNA3.3-TOPO; lysate supernatant used as enzyme
T1 sequence (B3VTJ2 1-941): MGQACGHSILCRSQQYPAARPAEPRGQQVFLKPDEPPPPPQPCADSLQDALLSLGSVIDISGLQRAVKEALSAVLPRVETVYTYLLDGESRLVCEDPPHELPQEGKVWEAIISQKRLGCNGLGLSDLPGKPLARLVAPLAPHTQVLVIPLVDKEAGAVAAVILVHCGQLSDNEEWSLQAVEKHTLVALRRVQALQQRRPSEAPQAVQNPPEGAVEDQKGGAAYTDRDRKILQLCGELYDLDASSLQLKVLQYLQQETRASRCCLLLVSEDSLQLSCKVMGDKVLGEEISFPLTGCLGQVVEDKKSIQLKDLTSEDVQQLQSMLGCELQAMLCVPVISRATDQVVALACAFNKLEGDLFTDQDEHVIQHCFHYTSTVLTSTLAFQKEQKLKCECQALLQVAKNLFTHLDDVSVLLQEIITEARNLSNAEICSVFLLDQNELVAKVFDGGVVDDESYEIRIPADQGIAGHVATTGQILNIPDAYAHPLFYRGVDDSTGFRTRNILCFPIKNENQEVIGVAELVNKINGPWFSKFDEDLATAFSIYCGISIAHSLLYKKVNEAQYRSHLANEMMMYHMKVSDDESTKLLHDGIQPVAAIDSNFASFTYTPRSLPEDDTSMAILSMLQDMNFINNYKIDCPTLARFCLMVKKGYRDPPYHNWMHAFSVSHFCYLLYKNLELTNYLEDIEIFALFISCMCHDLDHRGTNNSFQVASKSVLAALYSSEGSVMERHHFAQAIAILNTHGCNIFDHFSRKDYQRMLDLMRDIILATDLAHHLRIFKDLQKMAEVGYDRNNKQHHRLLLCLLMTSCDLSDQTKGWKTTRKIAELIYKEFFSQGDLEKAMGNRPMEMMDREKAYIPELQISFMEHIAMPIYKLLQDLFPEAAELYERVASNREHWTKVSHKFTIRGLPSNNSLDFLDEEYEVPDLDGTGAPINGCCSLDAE
Assay: PDE2 fluorescence polarization (IMAP FP) inhibition assay, rhesus enzyme
Assay type: biochemical, rhesus macaque
Description: The activity of the compounds in accordance with the present invention as PDE2 inhibitors may be readily determined using a fluorescence polarization (FP) methodology (Huang, W., et al., J. Biomol Screen, 2002, 7: 215).
In a typical experiment the PDE2 inhibitory activity of the compounds of the present invention was determined in accordance with the following experimental method. Rhesus PDE2A3 was amplified from rhesus macaque brain cDNA (Biochain Institute, Hayward, Calif.) using primers based on human PDE2A sequence (accession NM_002599.3) where the forward primer containing a Kozak consensus was 5′-[…]-3′ and the reverse primer was 5′-[…]-3′. Amplification with Easy-A High-Fidelity PCR cloning enzyme (Stratagene, La Jolla, Calif.) was 95° C. for 2 minutes followed by thirty three cycles of 95° C. for 40 seconds, 52° C. for 30 seconds, and 72° C. for 2 minutes 48 seconds. Final extension was 72° C. for 7 minutes. The PCR product was TA cloned into pcDNA3.3-TOPO (Invitrogen, Carlsbad, Calif.) according to standard protocol. A consensus sequence was developed from multiple clones and then deposited into GenBank (EU812167). AD293 cells (Stratagene, La Jolla, Calif.) with 70-80% confluency were transiently transfected with rhesus PDE2A3/pcDNA3.3-TOPO using Lipofectamine 2000 according to manufacturer specifications (Invitrogen, Carlsbad, Calif.). Cells were harvested 48 hours post-transfection and lysed by sonication (setting 3, 10×5 sec pulses) in a buffer containing 20 mM HEPES pH 7.4, 1 mM EDTA and Complete Protease Inhibitor Cocktail Tablets (Roche, Indianapolis, Ind.). Lysate was collected by centrifugation at 75,000×g for 20 minutes at 4° C. and supernatant utilized for evaluation of PDE2 activity. The fluorescence polarization assay for cyclic nucleotide phosphodiesterases was performed using an IMAP® FP kit supplied by Molecular Devices, Sunnyvale, Calif. (product # R8139). […] Assays were performed at room temperature in 384-well microtiter plates with an incubation volume of 20.2 μL. Solutions of test compounds were prepared in DMSO and serially diluted with DMSO to yield 8 μL of each of 10 solutions differing by 3-fold in concentration, at 32 serial dilutions per plate. […] 0% of inhibition is determined by using DMSO (1% final concentrations).
A Labcyte Echo 555 (Labcyte, Sunnyvale, Calif.) is used to dispense 200 nL from each well of the titration plate to the 384 well assay plate. Ten microliters of a solution of enzyme (1/2000 final dilution from aliquots; sufficient to produce 20% substrate conversion) was added to the assay plate. Next 10 uL of a separate solution of the substrate FAM-labeled cAMP (50 nM final concentration product # R7506 from Molecular Devices) and the activator cGMP (1 uM final concentration), prepared in the assay buffer (10 mM Tris HCl, pH 7.2, 10 mM MgCl2, 0.05% NaN3 0.01% Tween-20, and 1 mM DTT) was added to the assay plate and shaken to mix. The reaction is allowed to proceed at room temperature for 60 minutes. A binding solution is then made from the kit components, comprised of 80% Solution A, 20% Solution B and binding reagent at a volume of 1/600 the total binding solution. The enzymatic reaction is stopped by addition of 60 μl, of the binding solution to each well of the assay plates and the plates are sealed and shaken for 30 seconds. The plate was incubated at room temperature for at least one hour prior to determining the fluorescence polarization (FP). The parallel and perpendicular fluorescence of each well of the plate was measured using a Tecan Genios Pro plate reader (Tecan, Switzerland) or Perkin Elmer EnVision™ plate reader (Waltham, Mass.). Fluorescence polarization (mP) was calculated from the parallel (S) and perpendicular (P) fluorescence of each sample well and the analogous values for the median control well, containing only substrate (So and Po), using the following equation: Polarization (mP)=1000*(S/So−P/Po)/(S/So+P/Po).

[1] = Lab B, read-out: Rhesus PDE2 Ki (nM) Lab B
[2] = Lab A, read-out: Rhesus PDE2 Ki (nM) Lab A

Structure (SMILES): Cc1nc(-n2cc(C(C)c3ccc4c(c3)OCC4(C)C)cn2)cc(=O)[nH]1 (stereo not drawn) [Example 47, 6-(4-(1-(3,3-dimethyl-2,3-dihydrobenzofuran-6-yl)ethyl)-1H-pyrazol-1-yl)-2-methylpyrimidin-4(3H)-one]
- Ki [1]: 1240 nM

Structure (SMILES): Cc1nc(-c2cc([C@@H](C)c3ccc(C(F)(F)F)cc3)n(C)n2)cc(=O)[nH]1 (single isomer, unassigned) [Example 25]
- Ki [1]: 3680 nM

Structure (SMILES): Cc1nc(-c2cc([C@@H](C)c3ccc(C(F)(F)F)cc3)n(C)n2)cc(=O)[nH]1 (single isomer, unassigned) [Example 26]
- Ki [1]: 1140 nM

Structure (SMILES): CNC(c1ccc(C(F)(F)F)cc1)c1cnn(-c2cc(=O)[nH]c(C)n2)c1 (stereo not drawn) [Example 31, 2-Methyl-6-(4-((methylamino)(4-(trifluoromethyl)phenyl)methyl)-1H-pyrazol-1-yl)pyrimidin-4(3H)-one]
- Ki [1]: 488 nM

Structure (SMILES): Cc1nc(-n2cc(C(C)c3ccc(OC(F)(F)F)cc3C)cn2)cc(=O)[nH]1 (stereo not drawn) [Example 55, 2-methyl-6-(4-(1-(2-methyl-4-(trifluoromethoxy)phenyl)ethyl)-1H-pyrazol-1-yl)pyrimidin-4(3H)-one]
- Ki [1]: 467 nM

Structure (SMILES): Cc1nc(-c2cnn(C(C)c3ccc(OC(F)(F)F)cc3F)c2)cc(=O)[nH]1 (single isomer, unassigned) [Example 59, (S)- or (R)-6-(1-(1-(2-fluoro-4-(trifluoromethoxy)phenyl)ethyl)-1H-pyrazol-4-yl)-2-methylpyrimidin-4(3H)-one]
- Ki [1]: 469 nM

Structure (SMILES): Cc1nc(-c2cnn(C(C)c3ccc(C(F)(F)F)cc3C)c2)cc(=O)[nH]1 (single isomer, unassigned) [Example 56, (R)- or (S)-2-methyl-6-(1-(1-(2-methyl-4-(trifluoromethyl)phenyl)ethyl)-1H-pyrazol-4-yl)pyrimidin-4(3H)-one]
- Ki [1]: 314 nM

Next, values leading:

- Ki [1]: > 1000 nM
Structure (SMILES): Cc1nc(-c2cc(C(C)c3ccc(C(F)(F)F)cc3)nn2C)cc(=O)[nH]1 (single isomer, unassigned) [Example 131, (R)- or (S)-2-methyl-6-(1-methyl-3-(1-(4-(trifluoromethyl)phenyl)ethyl)-1H-pyrazol-5-yl)pyrimidin-4(3H)-one]

- Ki [2]: 464 nM
Structure (SMILES): COCc1ccc(C(C)n2cc(-c3cc(=O)[nH]c(C)n3)cn2)c(F)c1 (single isomer, unassigned) [Example 97, (R)- or (S)-6-(1-(1-(2-fluoro-4-(methoxymethyl)phenyl)ethyl)-1H-pyrazol-4-yl)-2-methylpyrimidin-4(3H)-one]

- Ki [2]: 954 nM
Structure (SMILES): Cc1ccc(C(C)n2cc(-c3cc(=O)[nH]c(C)n3)cn2)c(Cl)c1 (single isomer, unassigned) [Example 149, (S)- or (R)-6-(1-(1-(2-chloro-4-methylphenyl)ethyl)-1H-pyrazol-4-yl)-2-methylpyrimidin-4(3H)-one]

- Ki [2]: > 2970 nM
Structure (SMILES): COCc1ccc(C(C)n2cc(-c3cc(=O)[nH]c(C)n3)cn2)c(Cl)c1 (single isomer, unassigned) [Example 104, (S)- or (R)-6-(1-(1-(2-chloro-4-(methoxymethyl)phenyl)ethyl)-1H-pyrazol-4-yl)-2-methylpyrimidin-4(3H)-one]

- Ki [1]: 4130 nM
Structure (SMILES): Cc1nc(-c2cnn(C(C)c3ccc(F)cc3)c2)cc(=O)[nH]1 (stereo not drawn) [Example 152, 6-(1-(1-(4-fluorophenyl)ethyl)-1H-pyrazol-4-yl)-2-methylpyrimidin-4(3H)-one]

- Ki [2]: 706 nM
Structure (SMILES): Cc1nc(-c2cnn(C(C)c3ccc(C4CC4)cc3C)c2)cc(=O)[nH]1 (single isomer, unassigned) [Example 93, (R)- or (S)-6-(1-(1-(4-cyclopropyl-2-methylphenyl)ethyl)-1H-pyrazol-4-yl)-2-methylpyrimidin-4(3H)-one]

- Ki [2]: 212 nM
Structure (SMILES): Cc1nc(-c2cnn(C(C)c3ccc(C4CC4)cc3F)c2)cc(=O)[nH]1 (single isomer, unassigned) [Example 92, (S)- or (R)-6-(1-(1-(4-cyclopropyl-2-fluorophenyl)ethyl)-1H-pyrazol-4-yl)-2-methylpyrimidin-4(3H)-one]

- Ki [2]: 1140 nM
Structure (SMILES): Cc1nc(-c2cnn(C(C)c3ccc(CC(F)(F)F)cc3F)c2)cc(=O)[nH]1 (single isomer, unassigned) [Example 95, (R)- or (S)-6-(1-(1-(2-fluoro-4-(2,2,2-trifluoroethyl)phenyl)ethyl)-1H-pyrazol-4-yl)-2-methylpyrimidin-4(3H)-one]
